According to patent publication US5834484A (Board of Supervisors of Louisiana State University and …, priority 1998, dated 1998):
Where two headings read alike, the source gives them in different places.

Key:
[1] = biological target: T1, dopamine transporter (DAT), cocaine binding site (Rattus norvegicus, UniProt P23977); test: Displacement of [^3 H]WIN 35,428 binding (rat striatal / caudate-putamen membranes); conditions: for binding affinity compared with cocaine and WIN 35,065-2: high affinity Ki values/components of cocaine and WIN 35,065-2; for Ki: mean ± SEM, three experiments in triplicate, unlabeled ligand, rat caudate-putamen
T1 construct: Rat striatal membranes are prepared from frozen tissue; from tissue; host or cells: rat caudate-putamen (striatal) membranes from frozen tissue
T1 sequence (P23977 whole entry): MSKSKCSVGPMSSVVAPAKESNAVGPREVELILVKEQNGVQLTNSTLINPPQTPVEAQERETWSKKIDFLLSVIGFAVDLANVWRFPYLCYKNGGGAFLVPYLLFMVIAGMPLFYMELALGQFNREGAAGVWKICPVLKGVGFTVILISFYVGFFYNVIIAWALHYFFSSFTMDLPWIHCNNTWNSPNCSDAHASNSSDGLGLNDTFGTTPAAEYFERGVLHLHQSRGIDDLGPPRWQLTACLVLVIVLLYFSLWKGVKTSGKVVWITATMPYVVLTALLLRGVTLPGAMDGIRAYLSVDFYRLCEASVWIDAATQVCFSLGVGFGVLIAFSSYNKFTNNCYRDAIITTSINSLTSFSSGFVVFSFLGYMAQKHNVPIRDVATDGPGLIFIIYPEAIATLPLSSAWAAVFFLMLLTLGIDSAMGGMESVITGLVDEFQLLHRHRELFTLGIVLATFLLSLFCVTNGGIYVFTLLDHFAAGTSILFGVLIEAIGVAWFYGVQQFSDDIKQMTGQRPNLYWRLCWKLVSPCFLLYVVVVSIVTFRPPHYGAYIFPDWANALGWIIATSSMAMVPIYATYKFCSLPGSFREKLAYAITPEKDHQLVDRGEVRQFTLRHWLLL

DAT = conditions: in words; cited from earlier work
[2] = biological target: T1, dopamine transporter (DAT), cocaine binding site; conditions: two-site model, taken from Izenwasser et al. 1994, substantially identical conditions, cited from earlier work

## COC(=O)C[C@H]1[C@@H](Cc2ccccc2)C[C@@H]2[C@@H](C)C[C@H]1N2C (relative stereo) [Compound 18b]
[1]; 18b vs 16b
  potency relative to corresponding 6α-methyl analog 16b: about fourfold more potent
[1]; in words
  binding affinity relative to unsubstituted analog 16a: only a slightly lower binding affinity than that of the unsubstituted analog 16a
  binding affinity compared with cocaine and WIN 35,065-2: within a factor of two of the high affinity binding components of cocaine and WIN 35,065-2

## COC(=O)C[C@@H]1[C@@H](Cc2ccccc2)C[C@@H]2[C@@H](C)C[C@H]1N2C (relative stereo) [Compound 19b]
[1]; 19b vs 17b
  potency relative to corresponding 6α-isomer 17b: about twice as potent
[1]; in words
  binding affinity relative to unsubstituted derivative 17a: comparable to that of the unsubstituted derivative 17a
[1]; vs prior art cocaine analog 3
  potency (binding affinity) relative to Compound 3, in words: nearly three orders of magnitude more potent

## COC(=O)[C@H]1[C@H]2[C@H](OC)C[C@@H](C[C@@H]1OC(=O)c1ccccc1)N2C (relative stereo) [Compound 4, 7β-methoxypseudococaine]
DAT
  binding affinity to DAT (literature): relatively low

## COC(=O)C[C@@H]1[C@@H](Cc2ccccc2)C[C@@H]2CC[C@H]1N2C (relative stereo) [Compound 17a]
[1]; in words
  potency relative to the binding affinities of cocaine, WIN 35,065-2 and 16a (unsubstituted 2α-isomer): significantly less potent
[1]
  Ki: 108 ± 14 nM
[1]; vs prior art cocaine analog 3
  potency (binding affinity) relative to Compound 3, in words: nearly three orders of magnitude more potent

## COC(=O)C[C@H]1[C@@H](Cc2ccccc2)C[C@@H]2CC[C@H]1N2C (relative stereo) [Compound 16a]
[1]; in words
  binding affinity compared with cocaine and WIN 35,065-2: not statistically different from the binding affinities of cocaine and WIN 35,065-2
[1]
  Ki: 91 ± 10 nM

## COC(=O)[C@H]1[C@@H](c2ccccc2)C[C@@H]2CC[C@H]1N2C [WIN 35,065-2]
[2]; read-out: Ki, high affinity, inhibition of [^3 H]WIN 35,428 binding, high affinity
  Ki: 33 ± 17 nM
[2]; read-out: Ki, low affinity, inhibition of [^3 H]WIN 35,428 binding, low affinity
  Ki: 314 ± 222 nM

## CCC[C@H]1C[C@@H]2[C@H](CC(=O)OC)[C@@H](Cc3ccccc3)C[C@H]1N2C (relative stereo) [Compound 19d]
[1]; vs prior art cocaine analog 3
  potency (binding affinity) relative to Compound 3, in words: nearly three orders of magnitude more potent

## CC[C@@H]1C[C@@H]2[C@H](CC(=O)OC)[C@@H](Cc3ccccc3)C[C@H]1N2C (relative stereo) [Compound 17c]
[1]; vs prior art cocaine analog 3
  potency (binding affinity) relative to Compound 3, fold: about 100 times

## COC(=O)C[C@@H]1[C@@H](Cc2ccccc2)C[C@@H]2[C@H](C)C[C@H]1N2C (relative stereo) [Compound 17b]
[1]
  Ki: 531 ± 12 nM

## COC(=O)[C@@H]1[C@@H](OC(=O)c2ccccc2)C[C@@H]2[C@@H](OC)C[C@H]1N2C (relative stereo) [Compound 3, 6β-methoxypseudococaine]
DAT
  binding affinity to DAT (literature): relatively low
